Results published in US11382956B2, “Amylin analogues” (Zealand Pharma A/S, priority 2016, dated 2022).
Numbered stars: 1 amine (or outer) side, 2 acyl side, 3 side chain; on linkers, the order of the positions; unused ones are H or OH. Bridge positions count the residues as written; N and C are the ends. Square brackets hold non-standard residues; d marks the D form. Peptide text beside a SMILES is read from it. * marks the point of attachment. C20 diacid = O=C(O)CCCCCCCCCCCCCCCCCCC(=O)*; γGlu = O=C(O)[C@H](CCC(=O)[*:2])N[*:1]; Hyp = O=C(O)[C@@H]1C[C@@H](O)CN1; NMeI = CC[C@H](C)[C@H](NC)C(=O)O; Aad = N[C@@H](CCCC(=O)O)C(=O)O; Orn = NCCC[C@H](N)C(=O)O; Sar = CNCC(=O)O

How the values were obtained:
[1] = Assessment of chemical stability in 40 mM buffers at 40° C. (RP-HPLC); type: physicochemical; details: 1 mg/mL; for % degradation after 72 h at 40° C. pH4 acetate: acetate buffer pH 4, 72 h; for % degradation after 72 h at 40° C. pH6 phosphate: phosphate buffer pH 6, 72 h; for % degradation after 72 h at 40° C. pH7 phosphate: phosphate buffer pH 7, 72 h
How it was run: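 Degradation is the main-peak area-% at each time point minus that at t=0, measured by C8 reversed-phase HPLC (TFA/acetonitrile/water gradient, 220 nm). Incubation at 40° C for 3 or 14 days, 1 mg/mL peptide in 40 mM buffer at pH 4, 6 or 7.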

[2] = target: T1, recombinant human amylin 3 receptor (hAMYR3) (Homo sapiens, UniProt O60896+P30988); test: hAMYR3 cAMP assay (AlphaScreen) in 1321N1 cells; type: cell-based; details: cAMP formation, 45 min stimulation
T1 construct: host or cells: human astrocytoma cell line 1321N1
T1 sequence (P30988 25-474): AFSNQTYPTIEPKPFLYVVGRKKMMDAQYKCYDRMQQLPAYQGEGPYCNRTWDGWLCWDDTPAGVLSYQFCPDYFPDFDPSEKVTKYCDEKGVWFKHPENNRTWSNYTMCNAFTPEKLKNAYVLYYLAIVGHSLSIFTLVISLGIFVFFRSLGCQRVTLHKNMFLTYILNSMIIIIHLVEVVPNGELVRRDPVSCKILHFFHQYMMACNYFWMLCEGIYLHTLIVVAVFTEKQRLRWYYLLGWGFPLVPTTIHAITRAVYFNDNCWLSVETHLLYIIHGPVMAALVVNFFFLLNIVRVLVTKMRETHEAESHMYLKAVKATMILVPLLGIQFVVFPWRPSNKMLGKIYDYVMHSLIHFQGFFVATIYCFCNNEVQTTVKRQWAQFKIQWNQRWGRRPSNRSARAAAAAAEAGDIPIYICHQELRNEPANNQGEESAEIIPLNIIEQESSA
T1 sequence (O60896 24-148 partner): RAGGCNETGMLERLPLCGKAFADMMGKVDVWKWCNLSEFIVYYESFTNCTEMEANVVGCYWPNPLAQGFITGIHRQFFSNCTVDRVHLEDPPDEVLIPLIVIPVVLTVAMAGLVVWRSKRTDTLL
How it was run: (§1)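 EC50 values come from curve fits over at least 7 peptide concentrations, with cAMP read by AlphaScreen competition after 1 h in the dark. Cells were 1321N1 lines carrying human calcitonin receptor, with RAMP3 co-expressed for AMY3, treated 45 min at room temperature in the presence of IBMX.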

[3] = target: T2, recombinant human calcitonin receptor (hCT-R) (Homo sapiens, UniProt P30988); test: hCT-R cAMP assay (AlphaScreen) in 1321N1 cells; type: cell-based; details: cAMP formation, 45 min stimulation
T2 construct: host or cells: human astrocytoma cell line 1321N1
T2 sequence (P30988 25-474): T1 sequence (P30988 25-474)
How it was run: as §1

[4] = Assessment of physical stability: fibril formation by Thioflavin T fluorescence; type: physicochemical; design: key: FND = fibrillation not detected; FD = fibrillation detected; details: 1 mg/mL peptide; for Fibrillation (in buffer) pH4 acetate: 50 mM acetate buffer pH 4.0, 96 hours at 40° C.; for Fibrillation (in buffer) pH7 histidine: 50 mM histidine buffer pH 7.0, 96 hours at 40° C.; for Fibrillation (in buffer) pH7 phosphate: 50 mM phosphate buffer pH 7.0, 96 hours at 40° C.
How it was run: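 Fibrillation detected (FD) means a significant rise in ThT fluorescence over 96 hours at 40° C, read at 10 min intervals each preceded by 300 s automixing. Samples: 1 mg/mL peptide, 40 μM ThT, in 50 mM phosphate or histidine (pH 7.0) or acetate (pH 4.0), triplicate.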

Row | % degradation after 72 h at 40° C. pH4 acetate [1] [%] | % degradation after 72 h at 40° C. pH6 phosphate [1] [%] | % degradation after 72 h at 40° C. pH7 phosphate [1] [%] | EC50 [2] [pM] | EC50 [3] [pM] | Fibrillation (in buffer) pH4 acetate [4] | Fibrillation (in buffer) pH7 histidine [4] | Fibrillation (in buffer) pH7 phosphate [4] | % degradation after 14 days at 40° C. pH4 acetate ([1]; acetate buffer pH 4, 14 days) [%] | % degradation after 14 days at 40° C. pH6 phosphate ([1]; phosphate buffer pH 6, 14 days) [%] | % degradation after 14 days at 40° C. pH7 phosphate ([1]; phosphate buffer pH 7, 14 days) [%] | Compound
1 | <1 | <1 | 2.8 | 63 | 206 | FND | FND | FND |  |  |  | CC[C@H](C)[C@@H](C(=O)N1CCC[C@H]1C(=O)N[C@@H](CO)C(=O)N[C@@H](CO)C(=O)N[C@H](C(=O)N[C@@H](CCC(=O)O)C(=O)N[C@H](C(=O)NCC(=O)N[C@@H](CO)C(=O)N[C@@H](CC(N)=O)C(=O)N[C@H](C(=O)N1C[C@H](O)C[C@H]1C(N)=O)[C@@H](C)O)C(C)C)[C@@H](C)O)N(C)C(=O)[C@H](C)NC(=O)CN(C)C(=O)[C@H](Cc1ccccc1)NC(=O)[C@H](CO)NC(=O)[C@H](CO)NC(=O)[C@H](CCCNC(=N)N)NC(=O)[C@H](CCC(N)=O)NC(=O)[C@H](CC(C)C)NC(=O)[C@H](Cc1ccccc1)NC(=O)[C@H](CCCC(=O)O)NC(=O)[C@H](C)NC(=O)[C@H](CC(C)C)NC(=O)[C@H](CCCNC(=N)N)NC(=O)[C@H](CCC(=O)O)NC(=O)[C@@H](NC(=O)[C@H](C)NC(=O)[C@@H]1CCCCNC(=O)C[C@H](NC(=O)[C@H](CCCNC(=N)N)NC(=O)CC[C@H](NC(=O)CCCCCCCCCCCCCCCCCCC(=O)O)C(=O)O)C(=O)NCC(=O)N[C@@H]([C@@H](C)O)C(=O)N[C@@H](C)C(=O)N[C@@H]([C@@H](C)O)C(=O)N1)[C@@H](C)O [Compound 34, [19CD]-isoGlu-RD()GTATK()ATERLA-Aad-FLQRSSF-Gly(Me)-A-Ile(Me)-PSSTEVGSNT-Hyp-NH2] ({C20 diacid-γGlu}-RDGTATKATERLA[Aad]FLQRSSF[Sar]A[NMeI]PSSTEVGSNT[Hyp]-NH2; lactam 2-7)
2 | 1.2 | <1 | <1 | 25 | 58 | FND | FND | FND |  |  |  | CC[C@H](C)[C@@H](C(=O)N1CCC[C@H]1C(=O)N[C@@H](CO)C(=O)N[C@@H](CO)C(=O)N[C@H](C(=O)N[C@@H](CCC(=O)O)C(=O)N[C@H](C(=O)NCC(=O)N[C@@H](CO)C(=O)N[C@@H](CC(N)=O)C(=O)N[C@H](C(=O)N1C[C@H](O)C[C@H]1C(N)=O)[C@@H](C)O)C(C)C)[C@@H](C)O)N(C)C(=O)[C@H](C)NC(=O)CN(C)C(=O)[C@H](Cc1ccccc1)NC(=O)[C@H](CO)NC(=O)[C@H](CO)NC(=O)[C@H](CCCNC(=N)N)NC(=O)[C@H](CCC(N)=O)NC(=O)[C@H](CC(C)C)NC(=O)[C@H](Cc1ccccc1)NC(=O)[C@H](Cc1c[nH]cn1)NC(=O)[C@H](C)NC(=O)[C@H](CC(C)C)NC(=O)[C@H](CCCNC(=N)N)NC(=O)[C@H](CCC(=O)O)NC(=O)[C@@H](NC(=O)[C@H](C)NC(=O)[C@@H]1CCCCNC(=O)C[C@H](NC(=O)[C@H](CCCNC(=N)N)NC(=O)CC[C@H](NC(=O)CCCCCCCCCCCCCCCCCCC(=O)O)C(=O)O)C(=O)NCC(=O)N[C@@H]([C@@H](C)O)C(=O)N[C@@H](C)C(=O)N[C@@H]([C@@H](C)O)C(=O)N1)[C@@H](C)O [Compound 17, [19CD]-isoGlu-RD()GTATK()ATERLAHFLQRSSF-Gly(Me)-A-Ile(Me)-PSSTEVGSNT-Hyp-NH2] ({C20 diacid-γGlu}-RDGTATKATERLAHFLQRSSF[Sar]A[NMeI]PSSTEVGSNT[Hyp]-NH2; lactam 2-7)
3 | <1 | <1 | <1 | 68 | 345 | FD | FND | FND | 1.9 | 1.8 | 9.1 | CC[C@H](C)[C@@H](C(=O)N[C@@H](CC(C)C)C(=O)N[C@@H](CO)C(=O)N[C@@H](CO)C(=O)N[C@H](C(=O)N[C@@H](CCC(=O)O)C(=O)N[C@H](C(=O)NCC(=O)N[C@@H](CO)C(=O)N[C@@H](CC(N)=O)C(=O)N[C@H](C(=O)N1C[C@H](O)C[C@H]1C(N)=O)[C@@H](C)O)C(C)C)[C@@H](C)O)N(C)C(=O)[C@H](C)NC(=O)CN(C)C(=O)[C@H](Cc1ccccc1)NC(=O)[C@H](CO)NC(=O)[C@H](CO)NC(=O)[C@H](CCCNC(=N)N)NC(=O)[C@H](CCC(N)=O)NC(=O)[C@H](CC(C)C)NC(=O)[C@H](Cc1ccccc1)NC(=O)[C@H](CCCNC(=N)N)NC(=O)[C@H](C)NC(=O)[C@H](CC(C)C)NC(=O)[C@H](CCCNC(=N)N)NC(=O)[C@H](CCC(=O)O)NC(=O)[C@@H](NC(=O)[C@H](C)NC(=O)[C@@H]1CCCNC(=O)C[C@H](NC(=O)[C@H](CCCNC(=N)N)NC(=O)CC[C@H](NC(=O)CCCCCCCCCCCCCCCCCCC(=O)O)C(=O)O)C(=O)NCC(=O)N[C@@H]([C@@H](C)O)C(=O)N[C@@H](C)C(=O)N[C@@H]([C@@H](C)O)C(=O)N1)[C@@H](C)O [Compound 10, [19CD]-isoGlu-RD()GTAT-Orn()-ATERLARFLQRSSF-Gly(Me)-A-Ile(Me)-LSSTEVGSNT-Hyp-NH2] ({C20 diacid-γGlu}-RDGTAT[Orn]ATERLARFLQRSSF[Sar]A[NMeI]LSSTEVGSNT[Hyp]-NH2; lactam 2-7)
4 | <1 | <1 | <1 | 59 | 129 | FND | FND | FND |  |  |  | CC[C@H](C)[C@@H](C(=O)N[C@@H](CC(C)C)C(=O)N[C@@H](CO)C(=O)N[C@@H](CO)C(=O)N[C@H](C(=O)N[C@@H](CCC(=O)O)C(=O)N[C@H](C(=O)NCC(=O)N[C@@H](CO)C(=O)N[C@@H](CC(N)=O)C(=O)N[C@H](C(=O)N1C[C@H](O)C[C@H]1C(N)=O)[C@@H](C)O)C(C)C)[C@@H](C)O)N(C)C(=O)[C@H](C)NC(=O)CN(C)C(=O)[C@H](Cc1ccccc1)NC(=O)[C@H](CO)NC(=O)[C@H](CO)NC(=O)[C@H](CCCNC(=N)N)NC(=O)[C@H](CCC(N)=O)NC(=O)[C@H](CC(C)C)NC(=O)[C@H](Cc1ccccc1)NC(=O)[C@H](Cc1c[nH]cn1)NC(=O)[C@H](C)NC(=O)[C@H](CC(C)C)NC(=O)[C@H](CCCNC(=N)N)NC(=O)[C@H](CCC(N)=O)NC(=O)[C@@H](NC(=O)[C@H](C)NC(=O)[C@@H]1CCCNC(=O)C[C@H](NC(=O)[C@H](CCCNC(=N)N)NC(=O)CC[C@H](NC(=O)CCCCCCCCCCCCCCCCCCC(=O)O)C(=O)O)C(=O)NCC(=O)N[C@@H]([C@@H](C)O)C(=O)N[C@@H](C)C(=O)N[C@@H]([C@@H](C)O)C(=O)N1)[C@@H](C)O [Compound 8, [19CD]-isoGlu-RD()GTAT-Orn()-ATQRLAHFLQRSSF-Gly(Me)-A-Ile(Me)-LSSTEVGSNT-Hyp-NH2] ({C20 diacid-γGlu}-RDGTAT[Orn]ATQRLAHFLQRSSF[Sar]A[NMeI]LSSTEVGSNT[Hyp]-NH2; lactam 2-7)
